Assay results: patent publication US20130029928A1 (priority 2010, published 2013)
Read-outs that look alike come from different tables or passages of the source.

Assay: Phase I study CXR1002-001: plasma pharmacokinetics (LC-MS/MS)
Assay type: in vivo, human
Settings: human, plasma, po, read-out: Concentration (plasma level); for concentration at 528 hr: Time 528 hr (Day 23); for concentration at 672 hr: Time 672 hr (Day 29); for concentration at 696 hr: Time 696 hr (Day 30); for concentration at 864 hr: Time 864 hr (Day 37); for concentration at 24 hr: Time 24 hr (Day 2); for concentration at 168 hr: Time 168 hr (Day 8); for concentration at 336 hr: Time 336 hr (Day 15); for concentration at 360 hr: Time 360 hr (Day 16)
Text: PK samples, PD (fasting) samples, blood glucose, and blood triglyceride samples, were taken over a 6-week period.
Dose limiting toxicity (DLT) will be based on the toxicity assessments over the first 3-week period of the repeat dosing schedule. PK samples (single blood sample) were taken on the following basis: • Every 6 weeks during the repeat dosing phase • If dosing is interrupted or stopped, samples will be taken at intervals according to patient convenience • PK sampling for safety evaluation may take place at any time, as clinically indicated
Plasma samples were collected after the single 50 mg dose at the following timepoints: Pre-dose, and then 0.25, 0.5, 0.75, 1, 1.5, 2, 3, 4, 6, 24, 48, and 72 hours after administration and then once weekly at weeks 2, 3, 4, 5, and 6 (days 8, 15, 22, 29, and 36). For patients treated with the weekly repeat dose, plasma samples were collected at the following timepoints: Pre-dose and then 2, 3, 4 and 24 hours after administration for a total of 6 weeks. Thereafter a single sample was collected every 6 weeks for monitoring of exposure during long term treatment. Plasma samples were processed at site and stored at −80° C. prior to batch shipment to the analytical laboratory.

[1] = 1000 mg, Patient 041, 1000 mg weekly oral dose
[2] = 1000 mg, Patient 042, 1000 mg weekly oral dose
[3] = 1200 mg, Patient 036, 1200 mg weekly oral dose

SMILES: O=C(O)C(F)(F)C(F)(F)C(F)(F)C(F)(F)C(F)(F)C(F)(F)C(F)(F)F [CXR1002]
- concentration at 528 hr [1]: 703 µM
- concentration at 672 hr [1]: 670 µM
- concentration at 674 hr [1]: 546 µM
- concentration at 675 hr [1]: 740 µM
- concentration at 676 hr (1000 mg, Patient 041, 1000 mg weekly oral dose, Time 676 hr): 802 µM
- concentration at 696 hr [1]: 786 µM
- concentration at 840 hr (1000 mg, Patient 041, 1000 mg weekly oral dose, Time 840 hr (Day 36)): 715 µM
- concentration at 842 hr (1000 mg, Patient 041, 1000 mg weekly oral dose, Time 842 hr): 738 µM
- concentration at 843 hr [1]: 1010 µM
- concentration at 864 hr [1]: 1210 µM
- concentration at 2 hr [2]: 272 µM
- concentration at 3 hr [2]: 359 µM
- concentration at 4 hr [2]: 281 µM
- concentration at 24 hr [2]: 239 µM
- concentration at 168 hr [2]: 251 µM
- concentration at 170 hr (1000 mg, Patient 042, 1000 mg weekly oral dose, Time 170 hr): 391 µM
- concentration at 171 hr (1000 mg, Patient 042, 1000 mg weekly oral dose, Time 171 hr): 461 µM
- concentration at 172 hr (1000 mg, Patient 042, 1000 mg weekly oral dose, Time 172 hr): 436 µM
- concentration at 192 hr (1000 mg, Patient 042, 1000 mg weekly oral dose, Time 192 hr (Day 9)): 502 µM
- concentration at 336 hr [2]: 586 µM
- concentration at 338 hr [2]: 645 µM
- concentration at 339 hr [2]: 675 µM
- concentration at 340 hr [2]: 636 µM
- concentration at 360 hr [2]: 651 µM
- concentration at 504 hr (1000 mg, Patient 042, 1000 mg weekly oral dose, Time 504 hr (Day 22)): 765 µM
- concentration at 506 hr (1000 mg, Patient 042, 1000 mg weekly oral dose, Time 506 hr): 872 µM
- concentration at 507 hr (1000 mg, Patient 042, 1000 mg weekly oral dose, Time 507 hr): 952 µM
- concentration at 508 hr (1000 mg, Patient 042, 1000 mg weekly oral dose, Time 508 hr): 987 µM
- concentration at 528 hr [2]: 1230 µM
- concentration at 672 hr [2]: 1040 µM
- concentration at 674 hr [2]: 1180 µM
- concentration at 675 hr [2]: 1190 µM
- concentration at 696 hr [2]: 1280 µM
- concentration at 840 hr (1000 mg, Patient 042, 1000 mg weekly oral dose, Time 840 hr (Day 36)): 1250 µM
- concentration at 842 hr (1000 mg, Patient 042, 1000 mg weekly oral dose, Time 842 hr): 1140 µM
- concentration at 843 hr [2]: 1180 µM
- concentration at 844 hr (1000 mg, Patient 042, 1000 mg weekly oral dose, Time 844 hr): 1160 µM
- concentration at 864 hr [2]: 1250 µM
- concentration at 2 hr [3]: 443 µM
- concentration at 3 hr [3]: 431 µM
- concentration at 4 hr [3]: 361 µM
- concentration at 24 hr [3]: 708 µM
- concentration at 168 hr [3]: 286 µM
- concentration at 170 h (1200 mg, Patient 036, 1200 mg weekly oral dose, Time 170 hr): 680 µM
- concentration at 171 h (1200 mg, Patient 036, 1200 mg weekly oral dose, Time 171 hr): 678 µM
- concentration at 172 h (1200 mg, Patient 036, 1200 mg weekly oral dose, Time 172 hr): 665 µM
- concentration at 192 h (1200 mg, Patient 036, 1200 mg weekly oral dose, Time 192 hr (Day 9)): 295 µM
- concentration at 336 hr [3]: 557 µM
- concentration at 338 hr [3]: 840 µM
- concentration at 339 hr [3]: 866 µM
- concentration at 340 hr [3]: 930 µM
- concentration at 360 hr [3]: 657 µM
- concentration at 504 h (1200 mg, Patient 036, 1200 mg weekly oral dose, Time 504 hr (Day 22)): 969 µM
- concentration at 506 h (1200 mg, Patient 036, 1200 mg weekly oral dose, Time 506 hr): 1140 µM
- concentration at 507 h (1200 mg, Patient 036, 1200 mg weekly oral dose, Time 507 hr): 1130 µM
- concentration at 508 h (1200 mg, Patient 036, 1200 mg weekly oral dose, Time 508 hr): 1120 µM
- concentration at 840 h (1200 mg, Patient 036, 1200 mg weekly oral dose, Time 840 hr (Day 36)): 948 µM
- concentration at 842 h (1200 mg, Patient 036, 1200 mg weekly oral dose, Time 842 hr): 1250 µM
